The structures appear in SMILES notation.

What is called IC50 is the concentration needed to halve the response being measured.

For the experiment, the target named is T1, Tyrosine-protein phosphatase non-receptor type 1 (Homo sapiens, UniProt P18031).
T1 sequence (P18031 whole entry): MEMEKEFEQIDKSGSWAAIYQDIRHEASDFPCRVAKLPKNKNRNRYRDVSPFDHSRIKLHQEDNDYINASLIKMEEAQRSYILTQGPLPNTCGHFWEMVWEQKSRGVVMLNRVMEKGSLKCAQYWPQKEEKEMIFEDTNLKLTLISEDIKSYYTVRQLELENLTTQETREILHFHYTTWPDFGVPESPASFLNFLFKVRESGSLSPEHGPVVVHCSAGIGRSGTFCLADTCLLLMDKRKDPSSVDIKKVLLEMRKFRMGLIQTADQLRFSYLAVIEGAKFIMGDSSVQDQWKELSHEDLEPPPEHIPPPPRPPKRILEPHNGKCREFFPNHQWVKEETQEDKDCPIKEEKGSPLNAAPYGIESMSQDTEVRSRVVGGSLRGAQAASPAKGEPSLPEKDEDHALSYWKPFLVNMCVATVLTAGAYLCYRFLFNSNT
As to the kind of experiment: Inhibition of human recombinant PTP1B assessed as p-nitorphenol production after 30 mins.
For the compound `COc1c(CC=C(C)C)c(O)cc2oc(=O)c(-c3ccc(O)cc3O)cc12` [GLYCYCOUMARIN], the IC50 was 184 µM.

Regarding `CC(C)=CCc1cc2c(=O)cc(-c3ccc(O)cc3)oc2cc1O` [LICOFLAVANONE A], the IC50 turned out to be 54.5 µM.

As to `COc1cc(O)cc2occ(-c3cc(O)c(O)c(CC=C(C)C)c3)c(=O)c12` [GLISOFLAVONE], the IC50 was 27.9 µM.

For the compound `COc1c(CC=C(C)C)c(O)cc(O)c1-c1oc2cc(O)ccc2c1C` [GLYCYBENZOFURAN], the IC50 is 25.5 µM.

Consider `CCCCCCCCCCCCCCCC(=O)C1=C(O)[C@@H](CO)OC1=O`, for which the IC50 was 4.4 µM.

Turning to `CC(C)=CCc1cc(-c2coc3cc(O)cc(O)c3c2=O)cc(O)c1O` [GLYCYRRHISOFLAVONE], the IC50 amounted to 58.7 µM.

As for `COc1c(CC=C(C)C)c(O)cc2oc(-c3ccc(O)cc3O)cc12` [LICOCOUMARONE], the IC50 is 71.2 µM.

These data come from ChEMBL document CHEMBL1221387, “Prenylflavonoids from Glycyrrhiza uralensis and their protein tyrosine phosphatase-1B inhibitory activities” (Bioorg Med Chem Lett, 2010).
